pIC50, pKi: −log10 of the molar value.
How the values were obtained:
Nucleic Acid [1] = assay: Ratio of drug level in Sprague-Dawley rat brain to plasma assessed as 6-(5-chloropyridin-2-yl)-3-(4-(2-cyclopropyl-2-hydroxyethoxy)-3-methoxyphenyl)pyrrolo[1,2-f][1,2,4]triazin-4(3H)-one level at 10 mg/kg, po qd; format: ADME, organism-based
Plasma [2] = assay: Plasma concentration in Sprague-Dawley rat assessed as 6-(5-chloropyridin-2-yl)-3-(4-(2-cyclopropyl-2-hydroxyethoxy)-3-methoxyphenyl)pyrrolo[1,2-f][1,2,4]triazin-4(3H)-one level at 10 mg/kg, po qd at 8 hrs; format: ADME, organism-based; conditions: in vivo
Brain [3] = assay: Drug concentration in Sprague-Dawley rat brain assessed as 6-(5-chloropyridin-2-yl)-3-(4-(2-cyclopropyl-2-hydroxyethoxy)-3-methoxyphenyl)pyrrolo[1,2-f][1,2,4]triazin-4(3H)-one level at 10 mg/kg, po qd at 8 hrs; format: ADME, organism-based; conditions: in vivo, read-out: Drug uptake
[4] = target: Melanin-concentrating hormone receptor 1 (Homo sapiens, UniProt Q99705); assay: Displacement of [125I][Phe13,Tyr19]-MCH from human MCHR1 expressed in HEK293 cells by scintillation counting analysis; format: cell-based
[5] = target: Melanin-concentrating hormone receptor 1 (Rattus norvegicus, UniProt P97639); assay: Displacement of [125I][Phe13,Tyr19]-MCH from rat MCHR1 by scintillation counting analysis
[6] = target: T1, Voltage-gated inwardly rectifying potassium channel KCNH2 (Homo sapiens, UniProt Q12809); assay: Inhibition of human ERG expressed in CHO cells assessed as channel current by Q-patch electrophysiological assay; format: cell-based
[7] = target: T1, Voltage-gated inwardly rectifying potassium channel KCNH2; assay: Inhibition of human ERG by flux assay
Brain [8] = assay: Drug concentration in Sprague-Dawley rat brain assessed as (S)-6-(4-chlorophenyl)-3-(4-(3-(ethylsulfonyl)-2-hydroxypropoxy)-3-methoxyphenyl)pyrrolo[1,2-f][1,2,4]triazin-4(3H)-one level at 10 mg/kg, po qd at 8 hrs; format: ADME, organism-based; conditions: in vivo, read-out: Drug uptake
Plasma [9] = assay: Plasma concentration in Sprague-Dawley rat assessed as (S)-6-(4-chlorophenyl)-3-(4-(3-(ethylsulfonyl)-2-hydroxypropoxy)-3-methoxyphenyl)pyrrolo[1,2-f][1,2,4]triazin-4(3H)-one level at 10 mg/kg, po qd at 8 hrs; format: ADME, organism-based; conditions: in vivo
Nucleic Acid [10] = assay: Ratio of drug level in Sprague-Dawley rat brain to plasma assessed as (S)-6-(4-chlorophenyl)-3-(4-(3-(ethylsulfonyl)-2-hydroxypropoxy)-3-methoxyphenyl)pyrrolo[1,2-f][1,2,4]triazin-4(3H)-one level at 10 mg/kg, po qd; format: ADME, organism-based
Plasma [11] = assay: Plasma concentration in Sprague-Dawley rat assessed as (R)-6-(4-chlorophenyl)-3-(4-(3-hydroxypyrrolidin-1-yl)-3-methoxyphenyl)pyrrolo[1,2-f][1,2,4]triazin-4(3H)-one level at 10 mg/kg, po qd at 8 hrs; format: ADME, organism-based; conditions: in vivo
Brain [12] = assay: Drug concentration in Sprague-Dawley rat brain assessed as (R)-6-(4-chlorophenyl)-3-(4-(3-hydroxypyrrolidin-1-yl)-3-methoxyphenyl)pyrrolo[1,2-f][1,2,4]triazin-4(3H)-one level at 10 mg/kg, po qd at 8 hrs; format: ADME, organism-based; conditions: in vivo, read-out: Drug uptake
Nucleic Acid [13] = assay: Ratio of drug level in Sprague-Dawley rat brain to plasma assessed as (R)-6-(4-chlorophenyl)-3-(4-(3-hydroxypyrrolidin-1-yl)-3-methoxyphenyl)pyrrolo[1,2-f][1,2,4]triazin-4(3H)-one level at 10 mg/kg, po qd; format: ADME, organism-based
Plasma [14] = assay: Plasma concentration in Sprague-Dawley rat assessed as 6-(4-chlorophenyl)-3-(4-((3,3-difluoro-1-hydroxycyclobutyl)methoxy)-3-methoxyphenyl)pyrrolo[1,2-f][1,2,4]triazin-4(3H)-one level at 10 mg/kg, po qd at 8 hrs; format: ADME, organism-based; conditions: in vivo
Brain [15] = assay: Drug concentration in Sprague-Dawley rat brain assessed as 6-(4-chlorophenyl)-3-(4-((3,3-difluoro-1-hydroxycyclobutyl)methoxy)-3-methoxyphenyl)pyrrolo[1,2-f][1,2,4]triazin-4(3H)-one level at 10 mg/kg, po qd at 8 hrs; format: ADME, organism-based; conditions: in vivo, read-out: Drug uptake
Nucleic Acid [16] = assay: Ratio of drug level in Sprague-Dawley rat brain to plasma assessed as 6-(4-chlorophenyl)-3-(4-((3,3-difluoro-1-hydroxycyclobutyl)methoxy)-3-methoxyphenyl)pyrrolo[1,2-f][1,2,4]triazin-4(3H)-one level at 10 mg/kg, po qd; format: ADME, organism-based
Rattus norvegicus = assay: Drug level in oral-dosed Sprague-Dawley rat treated with 1-(4-(6-(4-chlorophenyl)-4-oxothieno[3,2-d]pyrimidin-3(4H)-yl)-2-methoxyphenoxy)-2-methylpropan-2-yl 2-aminoacetate; format: ADME, organism-based; conditions: in vivo
hERG (KCNH2) = hERG (KCNH2) (Homo sapiens, UniProt Q12809); assay: Inhibition of human ERG at 1 uM by flux assay
Brain [17] = assay: Drug concentration in Sprague-Dawley rat brain assessed as 6-(4-chlorophenyl)-3-(4-((3S,4R)-3,4-dihydroxypyrrolidin-1-yl)-3-methoxyphenyl)pyrrolo[1,2-f][1,2,4]triazin-4(3H)-one level at 10 mg/kg, po qd at 8 hrs; format: ADME, organism-based; conditions: in vivo, read-out: Drug uptake
Plasma [18] = assay: Plasma concentration in Sprague-Dawley rat assessed as 6-(4-chlorophenyl)-3-(4-((3S,4R)-3,4-dihydroxypyrrolidin-1-yl)-3-methoxyphenyl)pyrrolo[1,2-f][1,2,4]triazin-4(3H)-one level at 10 mg/kg, po qd at 8 hrs; format: ADME, organism-based; conditions: in vivo
Nucleic Acid [19] = assay: Ratio of drug level in Sprague-Dawley rat brain to plasma assessed as 6-(4-chlorophenyl)-3-(4-((3S,4R)-3,4-dihydroxypyrrolidin-1-yl)-3-methoxyphenyl)pyrrolo[1,2-f][1,2,4]triazin-4(3H)-one level at 10 mg/kg, po qd; format: ADME, organism-based

Sequence of Melanin-concentrating hormone receptor 1 (Homo sapiens, UniProt Q99705) (Q99705 whole entry): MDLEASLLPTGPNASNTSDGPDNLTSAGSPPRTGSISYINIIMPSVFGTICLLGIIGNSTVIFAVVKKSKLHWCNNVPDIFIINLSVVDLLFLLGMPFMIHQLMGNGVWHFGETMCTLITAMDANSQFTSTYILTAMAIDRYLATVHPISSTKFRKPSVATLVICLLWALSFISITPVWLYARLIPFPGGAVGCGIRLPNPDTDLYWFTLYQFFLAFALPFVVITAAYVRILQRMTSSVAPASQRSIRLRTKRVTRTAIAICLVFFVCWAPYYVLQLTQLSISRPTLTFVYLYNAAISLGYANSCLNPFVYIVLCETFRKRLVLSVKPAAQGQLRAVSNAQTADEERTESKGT
Sequence of Melanin-concentrating hormone receptor 1 (Rattus norvegicus, UniProt P97639) (P97639 whole entry): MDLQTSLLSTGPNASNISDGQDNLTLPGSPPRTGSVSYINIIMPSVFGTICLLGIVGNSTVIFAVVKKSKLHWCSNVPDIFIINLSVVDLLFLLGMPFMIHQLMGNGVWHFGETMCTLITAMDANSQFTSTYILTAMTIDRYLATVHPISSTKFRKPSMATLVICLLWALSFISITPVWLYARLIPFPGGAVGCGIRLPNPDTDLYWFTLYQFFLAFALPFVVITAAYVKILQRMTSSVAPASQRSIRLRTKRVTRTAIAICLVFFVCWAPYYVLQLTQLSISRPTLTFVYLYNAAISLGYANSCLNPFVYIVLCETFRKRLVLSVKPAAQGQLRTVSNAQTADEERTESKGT
T1 sequence (Q12809 whole entry): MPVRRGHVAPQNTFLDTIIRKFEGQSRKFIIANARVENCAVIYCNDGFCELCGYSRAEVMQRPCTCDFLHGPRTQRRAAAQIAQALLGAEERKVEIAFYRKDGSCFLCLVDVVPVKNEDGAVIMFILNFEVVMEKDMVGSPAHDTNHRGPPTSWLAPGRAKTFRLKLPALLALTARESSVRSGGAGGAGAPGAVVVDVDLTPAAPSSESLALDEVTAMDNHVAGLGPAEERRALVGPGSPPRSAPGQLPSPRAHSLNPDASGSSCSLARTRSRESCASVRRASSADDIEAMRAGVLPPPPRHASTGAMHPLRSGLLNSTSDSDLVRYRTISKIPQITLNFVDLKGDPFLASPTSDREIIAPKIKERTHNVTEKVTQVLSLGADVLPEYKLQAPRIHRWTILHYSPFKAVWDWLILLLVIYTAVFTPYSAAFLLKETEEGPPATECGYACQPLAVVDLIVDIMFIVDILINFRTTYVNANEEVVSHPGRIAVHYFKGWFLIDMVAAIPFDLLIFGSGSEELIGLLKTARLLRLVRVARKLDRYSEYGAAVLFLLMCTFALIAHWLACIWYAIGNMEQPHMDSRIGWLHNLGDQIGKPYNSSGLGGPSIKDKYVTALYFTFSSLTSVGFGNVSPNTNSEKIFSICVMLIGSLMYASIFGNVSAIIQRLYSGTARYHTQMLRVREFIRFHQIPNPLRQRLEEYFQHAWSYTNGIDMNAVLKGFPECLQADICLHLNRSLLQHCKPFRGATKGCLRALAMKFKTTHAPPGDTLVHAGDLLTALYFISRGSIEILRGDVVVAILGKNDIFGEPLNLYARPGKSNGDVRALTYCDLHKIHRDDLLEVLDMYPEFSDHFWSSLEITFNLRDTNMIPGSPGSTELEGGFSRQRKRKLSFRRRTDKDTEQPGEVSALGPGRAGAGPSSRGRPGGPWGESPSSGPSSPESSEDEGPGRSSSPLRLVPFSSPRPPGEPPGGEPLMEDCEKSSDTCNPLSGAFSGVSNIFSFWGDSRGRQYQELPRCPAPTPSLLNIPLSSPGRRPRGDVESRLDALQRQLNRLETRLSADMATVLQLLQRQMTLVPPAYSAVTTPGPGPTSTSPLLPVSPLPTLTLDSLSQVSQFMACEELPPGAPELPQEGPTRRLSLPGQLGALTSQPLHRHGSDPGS
Sequence of hERG (KCNH2) (Q12809 whole entry): as above

| Compound | pKi [4] | pKi [5] | further results |
| --- | --- | --- | --- |
| COc1cc(-n2cnn3cc(-c4ccc(Cl)cn4)cc3c2=O)ccc1OCC(OC(=O)[C@@H](N)C(C)C)C1CC1 (some centres not stated) |  |  | BPR (Nucleic Acid [1]): 0.2; concentration (Plasma [2]): 10200 nM; concentration (Brain [3]): 2040 nM |
| COc1cc(-n2cnn3cc(-c4ccc(Cl)cc4)nc3c2=O)ccc1OCCN1CCCC1 | 8.36 | 8.59 |  |
| O=c1c2cc(-c3ccc(Cl)cc3)cn2ncn1-c1ccc(N2CC(O)C2)nc1 | 7.82 | 7.85 | pIC50 [7]: 5.48 |
| CCS(=O)(=O)C[C@H](COc1ccc(-n2cnn3cc(-c4ccc(Cl)cc4)cc3c2=O)cc1OC)OC(=O)CN |  |  | concentration (Brain [8]): 175 nM; concentration (Plasma [9]): 1830 nM; BPR (Nucleic Acid [10]): 0.1 |
| COc1cc(-n2cnn3cc(-c4ccc(Cl)cc4)cc3c2=O)ccc1N1CC[C@@H](OC(=O)[C@@H](N)C(C)C)C1 |  |  | concentration (Plasma [11]): 339 nM; concentration (Brain [12]): 966 nM; BPR (Nucleic Acid [13]): 2.9 |
| O=c1c2cc(-c3ccc(Cl)cn3)cn2ncn1-c1ccc(N2CC[C@@H](O)C2)nc1 | 6.91 | 7.27 |  |
| COc1cc(-n2cnn3cc(-c4ccc(Cl)cc4)cc3c2=O)ccc1OCC1(OC(=O)CN)CC(F)(F)C1 |  |  | concentration (Plasma [14]): 477 nM; concentration (Brain [15]): 2380 nM; BPR (Nucleic Acid [16]): 0.6 |
| COc1cc(-n2cnc3cc(-c4ccc(Cl)cc4)sc3c2=O)ccc1OCC(C)(O)CO (configuration not stated) |  |  | Drug metabolism (Rattus norvegicus): metabolite_detected |
| CCS(=O)(=O)C[C@@H](O)COc1ccc(-n2cnn3cc(-c4ccc(Cl)cn4)cc3c2=O)cc1OC | 7.82 | 8.06 |  |
| COc1cc(-n2cnn3cc(-c4ccc(Cl)cc4)cc3c2=O)ccc1OCC(C)O (configuration not stated) |  | 8.85 |  |
| O=c1c2cc(-c3ccc(Cl)cc3)cn2ncn1-c1ccc(N2CC[C@@H](O)C2)nc1 | 8.28 | 8.26 | inhibition at 1 µM (hERG (KCNH2)): 26% |
| COc1cc(-n2cnn3nc(-c4ccc(Cl)cc4)cc3c2=O)ccc1OCCN1CCCC1 | 9.15 | 9.30 |  |
| COc1cc(-n2cnn3cc(-c4ccc(Cl)cc4)cc3c2=O)ccc1N1C[C@H](OC(=O)[C@@H](N)C(C)C)[C@H](OC(=O)[C@@H](N)C(C)C)C1 |  |  | concentration (Brain [17]): 210 nM; concentration (Plasma [18]): 272 nM; BPR (Nucleic Acid [19]): 0.77 |

More lines, main results first:

| pKi [4] | pKi [5] | Compound | further results |
| --- | --- | --- | --- |
| 7.68 | 8.10 | COc1ccc(-n2cnn3cc(-c4ccc(Cl)cc4)cc3c2=O)cc1OC |  |
| 7.07 | 6.97 | COc1ccc(-n2cnn3nc(-c4ccc(Cl)cc4)cc3c2=O)cc1OC |  |
| 8.04 | 8.02 | COc1cc(-n2cnn3cc(-c4ccc(Cl)cn4)cc3c2=O)ccc1N1CC[C@@H](O)C1 |  |
| 7.89 | 7.82 | COc1cc(-n2cnn3cc(-c4ncc(Cl)cn4)cc3c2=O)ccc1OCC(C)(C)O |  |
| 7.92 | 7.74 | O=c1c2cc(-c3ccc(Cl)cc3)cn2ncn1-c1ccc(N2CCC(O)CC2)nc1 | pIC50 [6]: < 5.00; pIC50 [7]: < 4.10 |
| 7.89 | 7.89 | COc1cc(-n2cnn3nc(-c4ccc(Cl)cc4)cc3c2=O)ccc1OCC(O)C1CC1 (configuration not stated) |  |
| 8.19 | 8.19 | COc1cc(-n2cnn3cc(-c4ccc(Cl)cn4)cc3c2=O)ccc1OCC1(O)CC(F)(F)C1 |  |

From ChEMBL document CHEMBL3616440, “Non-basic azolotriazinone MCHR1 antagonists for the treatment of obesity: An empirical brain-exposures-driven candidate selection for in vivo efficacy studies” (Bioorg Med Chem Lett, 2015)
